According to US9744244B2, “Amphipathic peptide” (The Queen's University of Belfast, priority 2012, dated 2017):
Where no end group is shown, it is not given here.

Assays:
C57/BL6 mice = assay: Immune response on repeated administration (ELISA, Greiss test on serum); format: in vivo; details: first week, compared with PEI only
ZR-75-1 cells = assay: Transfection of ZR-75-1 cells, GFP expression by flow cytometry; format: cell-based
Procedure: In order to test the RALA in vitro, small scale transfections were performed carried out. 5×10^4 cells were seeded onto each well of a 96 well plate and the cells incubated under with complete medium standard conditions for 48 hours. The medium was subsequently removed from the plates and 100 μl of transfection medium (Optimem Invitrogen, UK) was added to each well. Cells were incubated for 2 hours at 37° C. and 5% CO2 standard conditions. In the meanwhile complexes were made up using 1 μg of plasmid DNA with the RALA vector and added to the cells when the two hours had passed. 100 μl of the each N:P ratio were added to each well of the cells. Cells were then incubated for a further 4 hours under standard conditions and the medium with RPMI-1640 supplemented with +10% FCS. (FIG. 4, 31 (+Chloroquine), 32 (+Bafilomycin), 33 (+KALA NPs), 34 (+Lipofectamine), 35).
ZR-75-1 & PC-3 cells that were transfected with RALA/pEGFP-N1 complexes were trypsinised and washed twice with 2% formaldehyde in phosphate buffered saline. The expression of green fluorescent protein was measured by flow cytometry using FACS calibur system (BD Bioscience, UK). The data was analysed using the Flo-Jo software program and fluorescent intensity is reported at 4% gating. (FIG. 7b, 11, 31, 32, 33, 34, 35, 57 (+RAT/pEGFP-N1)).

[1] = Nanoparticle size and charge analysis (DLS, Laser Doppler Velocimetry, Malvern Zetasizer); format: physicochemical
Procedure: In order to obtain particle size and charge distributions the mean hydrodynamic particle size measurements RALA complexes were performed using Dynamic Light Scattering (DLS). Dynamic Light Scattering is based upon the principle that when particles are illuminated with a laser, due to Brownian motion there will be scattering of the light. The intensity of the scattered light fluctuates as a result of this Brownian motion caused by bombardment of the particles by solvent molecules. A correlation curve reflecting the decay rate is generated based on fluctuations of the scattered light where a slower correlation decay rate represents a slower moving particle. Based on the Stokes-Einstein equation larger particles move more slowly and, thus, the correlation function can be used to determine the size distribution of the particles. dynamic light scattering (DLS) was used.
Surface charge measurements of the RALA nanoparticles were determined by Laser Doppler Velocimetry. The zeta potential of the particles was measured using disposable foltable zeta cuvettes. […]
The nanoparticles were made up at an appropriate range of N:P ratios with at least using 2 μg of DNA in each sample. Nanoparticles were analysed using either and analysis was completed on either the Zetasizer-HS3000 (Malvern Instruments) or the Zetasizer-Nano instrument with DTS software (Malvern Instruments, UK). […]

Sequence	initial TNFα response (C57/BL6 mice)	ability to transfect cells (ZR-75-1 cells)	ability to condense DNA into nanoparticles [1]
WEARLARALARALARHLARALARALRACEA [RALA]	significantly lower initial response of TNFα than the PEI only treated animals	–	–
WEARLARALARALARHLRACEA (22mer protein sequence (Table 2)) [Peptide 22mer, comparative peptide]	–	unable to condense DNA into nanoparticles and transfect cells	unable to condense DNA into nanoparticles
